# Laboratory results taken from ChEMBL document CHEMBL3603775, “Design, synthesis and evaluation of benzotriazole derivatives as novel antifungal agents” (Bioorg Med Chem Lett, 2015).
# How the values were obtained:
# Candida albicans [1] = assay: Antifungal activity against Candida albicans ATCC 10231 at 50 ug/ml after 48 hrs by cup plate method; assay type: functional; conditions: ATCC 10231, 48 h
# Candida albicans [2] = assay: Antifungal activity against Candida albicans ATCC 10231 at 10 ug/ml after 48 hrs by cup plate method; assay type: functional; conditions: ATCC 10231, 48 h
# [3] = target: T1, Lanosterol 14-alpha demethylase (Candida albicans (strain SC5314 / ATCC MYA-2876) (Yeast), UniProt P10613); assay: Inhibition of Candida albicans lanosterol 14-alpha demethylase assessed as reduction of ergosterol biosynthesis at 50 ug/ml after 18 hrs by UV spectroscopy analysis
# T1 sequence (P10613 whole entry): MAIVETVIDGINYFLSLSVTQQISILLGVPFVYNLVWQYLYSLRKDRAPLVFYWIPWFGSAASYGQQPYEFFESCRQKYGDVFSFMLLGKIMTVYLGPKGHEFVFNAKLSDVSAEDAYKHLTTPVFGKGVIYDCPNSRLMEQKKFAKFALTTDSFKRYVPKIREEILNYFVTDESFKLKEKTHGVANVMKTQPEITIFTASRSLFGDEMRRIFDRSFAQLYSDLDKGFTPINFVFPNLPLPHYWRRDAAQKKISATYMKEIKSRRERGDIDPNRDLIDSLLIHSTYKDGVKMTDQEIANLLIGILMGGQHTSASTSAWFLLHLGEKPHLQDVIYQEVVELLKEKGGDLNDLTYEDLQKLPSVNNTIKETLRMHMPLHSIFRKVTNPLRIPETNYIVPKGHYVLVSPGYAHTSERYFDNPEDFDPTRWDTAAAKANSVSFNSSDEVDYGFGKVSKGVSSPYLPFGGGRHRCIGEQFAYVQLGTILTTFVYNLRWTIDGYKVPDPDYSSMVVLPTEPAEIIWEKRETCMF
# Candida albicans [4] = assay: Antifungal activity against Candida albicans ATCC 10231 at 100 ug/ml after 48 hrs by cup plate method; assay type: functional; conditions: ATCC 10231, 48 h
# [5] = target: T1, Lanosterol 14-alpha demethylase; assay: Inhibition of Candida albicans lanosterol 14-alpha demethylase assessed as reduction of ergosterol biosynthesis at 100 ug/ml after 18 hrs by UV spectroscopy analysis
# [6] = target: T1, Lanosterol 14-alpha demethylase; assay: Inhibition of Candida albicans lanosterol 14-alpha demethylase assessed as reduction of ergosterol biosynthesis at 10 ug/ml after 18 hrs by UV spectroscopy analysis
Compound,inhibition at 50 µg/mL (Candida albicans [1]) [%],inhibition at 10 µg/mL (Candida albicans [2]) [%],inhibition at 50 µg/mL [3] [%],inhibition at 100 µg/mL (Candida albicans [4]) [%],inhibition at 100 µg/mL [5] [%],inhibition at 10 µg/mL [6] [%]
c1ccc(CNCc2ccc3[nH]nnc3c2)cc1,27.4,12.5,48.5,67.7,66,46.5
Cc1ccccc1NCc1ccc2[nH]nnc2c1,34.2,0,65.8,67.7,65.8,49.9
Cc1ccccc1OCc1ccc2[nH]nnc2c1,36.4,0,54,66.1,54.4,50.5
CCCCNCc1ccc2[nH]nnc2c1,30,12.5,45.5,64.3,47.8,1.55
Cc1ccccc1NC(=O)c1ccc2[nH]nnc2c1,23.7,4.16,35.7,58.4,42.5,12.6
O=C(NCc1ccccc1)c1ccc2[nH]nnc2c1,28.5,4.16,33.1,54.1,41.3,15.9
CCCCNC(=O)c1ccc2[nH]nnc2c1,27.4,4.16,22.7,54.3,38.1,7.91
Cc1ccccc1NCn1nnc2ccccc21,4.16,0,29.4,50.2,31.3,11.6
OC(Cn1cncn1)(Cn1cncn1)c1ccc(F)cc1F [FLUCONAZOLE],30,12.5,47.7,65.5,51.2,45.5
